Source: the supplement of paper PMC4862054
Values joined by “and” are separate entries in the source; they are usually repeats but may differ in a detail not shown here. Equal values may be shown once.

Tests used:
Details in all cases: incubation time: 72 h
Hs578T [1] = assay: drug sensitivity score (DSS), CellTox Green (DSS (AUC-based score)); higher = stronger drug effect (viability inhibition or cytotoxicity); extreme values may be limits of the assay
Method in brief: (§1)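 Plates with 384 wells held compound at 5 concentrations in 10-fold steps over a 10,000-fold range specific to each compound. Breast cancer cell lines were added in 20 µl suspension and incubated 72 h, then read for CellTox Green and CellTiter-Glo signals, with each plate normalised to 0.1 % DMSO and a positive kill control. The drug sensitivity score is based on the area under the fitted dose-response curve.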

CAL-148 [2] = assay: as above
Method in brief: as §1

MFM-223 [3] = assay: as above
Method in brief: as §1

CAL-120 [4] = assay: as above
Method in brief: as §1

BT-474 [5] = assay: as above
Method in brief: as §1

HCC1599 = assay: as above
Method in brief: as §1

MDA-MB-468 [6] = assay: as above
Method in brief: as §1

HCC1937 [7] = assay: as above
Method in brief: as §1

BT-549 = assay: as above
Method in brief: as §1

MDA-MB-436 [8] = assay: as above
Method in brief: as §1

HDQ-P1 = assay: as above
Method in brief: as §1

MCF-10A = assay: as above
Method in brief: as §1

CAL-85-1 = assay: as above
Method in brief: as §1

CAL-51 = assay: as above
Method in brief: as §1

MDA-MB-453 [9] = assay: as above
Method in brief: as §1

DU-4475 [10] = assay: as above
Method in brief: as §1

Hs578T [11] = assay: normalised viability (% of control), CellTiter-Blue; higher = more viable cells (about 100 = DMSO control)
Description: (§2)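 DSRT, CellTiter-Blue viability, 72 h incubation. Signal is normalised to DMSO and benzethonium chloride controls. Value is the normalised response at dose 3.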

CAL-148 [12] = assay: as above
Description: as §2

MFM-223 [13] = assay: as above
Description: as §2

CAL-120 [14] = assay: as above
Description: as §2

BT-474 [15] = assay: as above
Description: as §2

MDA-MB-468 [16] = assay: as above
Description: as §2

HCC1937 [17] = assay: as above
Description: as §2

MDA-MB-436 [18] = assay: as above
Description: as §2

MDA-MB-453 [19] = assay: as above
Description: as §2

SK-BR-3 = assay: as above
Description: as §2

DU-4475 [20] = assay: as above
Description: as §2

HCC1143 = assay: drug sensitivity score (DSS), CellTox Green (DSS (AUC-based score)); higher = stronger drug effect (viability inhibition or cytotoxicity); extreme values may be limits of the assay
Method in brief: as §1

SMILES	drug sensitivity score (Hs578T [1])	drug sensitivity score (CAL-148 [2])	drug sensitivity score (MFM-223 [3])	drug sensitivity score (CAL-120 [4])	drug sensitivity score (BT-474 [5])	drug sensitivity score (HCC1599)	drug sensitivity score (MDA-MB-468 [6])	drug sensitivity score (HCC1937 [7])	drug sensitivity score (BT-549)	drug sensitivity score (MDA-MB-436 [8])	drug sensitivity score (HDQ-P1)	drug sensitivity score (MCF-10A)	drug sensitivity score (CAL-85-1)	drug sensitivity score (CAL-51)	drug sensitivity score (MDA-MB-453 [9])	drug sensitivity score (DU-4475 [10])	normalised viability (Hs578T [11]; 100 nM)	normalised viability (CAL-148 [12]; 10 nM)	normalised viability (MFM-223 [13]; 100 nM)	normalised viability (CAL-120 [14]; 100 nM)	normalised viability (BT-474 [15]; 100 nM)	normalised viability (MDA-MB-468 [16]; 100 nM)	normalised viability (HCC1937 [17]; 100 nM)	normalised viability (MDA-MB-436 [18]; 100 nM)	normalised viability (MDA-MB-453 [19]; 10 nM)	normalised viability (SK-BR-3; 100 nM)	normalised viability (DU-4475 [20]; 10 nM)	drug sensitivity score (HCC1143)	normalised viability (Hs578T [11]; 1000 nM)	normalised viability (CAL-148 [12]; 100 nM)	normalised viability (MFM-223 [13]; 1000 nM)	normalised viability (CAL-120 [14]; 1000 nM)	normalised viability (BT-474 [15]; 1000 nM)	normalised viability (MDA-MB-468 [16]; 1000 nM)	normalised viability (HCC1937 [17]; 1000 nM)	normalised viability (MDA-MB-436 [18]; 1000 nM)	normalised viability (MDA-MB-453 [19]; 100 nM)	normalised viability (SK-BR-3; 1000 nM)	normalised viability (DU-4475 [20]; 100 nM)
CCn1c(-c2nonc2N)nc2cnc(Oc3cccc(NC(=O)c4ccc(OCCN5CCOCC5)cc4)c3)cc21	0	0	0	0	0	0	0.303	0	0	0	0	0	0	11.2	0	0																							
Cc1cc(Nc2cc(CN3CCOCC3)c3nc(C)c(Cc4ccc(Cl)cc4F)n3n2)n[nH]1																	85.9%	97.9%	67.9%	74.5%	102%	103%	101%	108%	91.1%	87.1%	99.6%												
COc1cc(O)c2c(c1)/C=C/C[C@H](O)[C@H](O)C(=O)/C=C\C[C@H](C)OC2=O [(5Z)-7-Oxozeaenol]	8.72	16.9	8.77	0	1.65	0	0	18.1	0	0	0	0	18.5	1.06	0	4.86												0											
CNC(=O)c1cccc(-c2ccc3c(N4CCOC[C@@H]4C)nc(N4CCOC[C@@H]4C)nc3n2)c1 [AZD2014]	0	11	3.63	0	0	0	0	0	0	0	0	0	0	0	0	0												0											
COC(=O)c1ccc2c(c1)NC(=O)/C2=C(\Nc1ccc(N(C)C(=O)CN2CCN(C)CC2)cc1)c1ccccc1 [BIBF 1120]																	104%	100%	79.1%	95.4%	130%	111%	115%	98.9%	101%	91.6%	114%												
Nc1cc(C(F)(F)F)c(-c2cc(N3CCOCC3)nc(N3CCOCC3)n2)cn1 [BKM-120]																	96.6%	94.9%	84%	81.3%	115%	99.2%	112%	90.2%	96%	76.7%	98.3%												
Nc1cc(C(F)(F)F)c(-c2cc(N3CCOCC3)nc(N3CCOCC3)n2)cn1 [Buparlisib]	2.89	0	0	0	3.4	0	0	0	1.91	0	0	0.18	0	6.04	0	0												0											
CNC(=O)c1ccc(N2C(=S)N(c3ccc(C#N)c(C(F)(F)F)c3)C(=O)C2(C)C)cc1F [Enzalutamide]	0	0	0	0	0	0	0	0	0	0	0	0	0	0	0	0												0											
CCOC(=O)CCNc1cc(N2CCc3ccccc3CC2)nc(-c2ccccn2)n1 [GSK-J4]	20.6	10.9	8.73	8.01	19	2.51	12.3	7.05	7.69	7.09	11.6	8.52	16.5	11.4	7.34	2.65												18.6											
Cc1cc(Nc2cc(CN3CCOCC3)c3nc(C)c(Cc4ccc(Cl)cc4F)n3n2)n[nH]1 [Gandotinib]	7.9	0	0	0	0	0	3.86	0	0	0.139	0	0	3.97	7.6	0	0												0											
CCc1c2c(nc3ccc(OC(=O)N4CCC(N5CCCCC5)CC4)cc13)-c1cc3c(c(=O)n1C2)COC(=O)[C@]3(O)CC [Irinotecan]	1.06	11.8	0	0.997	0	0	0	0	0	0	0	0	0	10.7	0	0	97.9% and 90.4%	86% and 102%	93.8% and 94.5%		110% and 106%	102% and 108%	93.2% and 84.8%	89.2% and 99.7%	102% and 115%	80.2% and 85.2%	115% and 123%	0											
Cc1ccc(NC(=O)c2ccc(CN3CCN(C)CC3)cc2)cc1Nc1nc(-c2cccnc2)cs1 [Masitinib]	1.55	0	0	0	0	0.597	1.39	0	0		0	0	0	0	0	0	86.6%	89.8%	101%	82.3%	115%	103%	107%	71.6%	103%	80.7%	102%	0											
COC(=O)c1ccc2c(c1)NC(=O)/C2=C(\Nc1ccc(N(C)C(=O)CN2CCN(C)CC2)cc1)c1ccccc1 [Nintedanib]	0	0	0	0	6.74	0	2.7	7.85	2.06	1.22	0	1.89	0	6.03	0	0												0											
COCC1(CO)C(=O)C2CCN1CC2 (stereo not drawn) [Prima-1 Met]	0	0	0	0	0	0	0	1.24	0		0	0	0	0	0	0	82.6%	90.2%	87.6%	91.5%	104%	106%	118%	101%	106%	94.2%	99.2%	0											
CNC(=O)c1ccc(N2C(=S)N(c3ccc(C#N)c(C(F)(F)F)c3)C(=O)C23CCC3)cc1F [RD162]	0	0	0	0	0	0	0	0	0	0	0	0	0	0	0	0																							
S=P(N1CC1)(N1CC1)N1CC1 [Thio-TEPA]	3.7	0	0	0	0	0	0	0	0	0	0	0	0		0	0													90.8%	102%	88.4%	86.7%	114%	103%	123%	118%	97.6%	91.1%	102%
COc1cc2c(NC3CCN(C(C)C)CC3)nc(N3CCC(F)(F)CC3)nc2cc1OCCCN1CCCC1 [UNC0642]	0	2.77	0	4.13	6.46	0	5.22	1.95	0	11	0	2.29	6.85	0	1.18	0												0											
